Results: publication PMC6902473 (Clinical Epigenetics, 2019)
Several values for one entry are separate records, joined by “and”; a condition that tells them apart may be missing. Equal values may be shown once. Read-outs that look alike come from different tables or passages of the source.

Legend:
[1] = human, in vivo
Protocol: (§1) The study design was a single-arm, multi-center phase I/II clinical trial with two phases: Phase I was an intra-patient dose (de)escalation period until an individual maximum tolerable dose (MTD) was reached. […] A DLT was defined as grade 3 or 4 toxicity according to a selection of Common Toxicity Criteria for Adverse Events (CTCAE) (V4.0) and judged by the investigator as definitely, probably, or possibly related to the study drug. The starting dose was 180 mg/m^2/day and the minimum dose was 30 mg/m^2/day. A dosing nomogram was used to minimize interpatient dosing variability.
(§2) De-escalation was done in steps of 50 mg/m^2/day until a minimal dose of 30 mg/m^2/day was reached. […] Upon reaching her or his individual MTD, a patient seamlessly entered phase II of the protocol.
(§3) During phase II, disease assessments were performed every 3 months, starting 3 months after reaching individual MTD. If treatment was discontinued for any reason during phase II, treatment was prolonged thereafter to provide a minimal treatment window of 3 months before measuring response. Patients without progressive disease continued the therapy at their individual MTD until disease progression (but no longer than 9 months). In case of clinical benefit, treatment could be continued on an individual basis at the discretion of the investigator. Toxicities were graded according CTCAE V4.0.
(§4) The primary end point was to determine a safe dose recommendation (SDR), defined as the highest dose with a DLT in no more than 1/50 patients.
(§5) The DLT associated with the starting dose was to be continuously monitored using a Bayesian criterion with a non-informative prior and a binomial-beta model for the DLT rate r. […] This decision process was repeated, i.e., it was applied to the lowered starting dose in an analogous way.
(§6) All adverse events were summarized, using MedDRA preferred terms.

[2] = Phase I/II intra-patient dose escalation trial: safety (DLT, individual MTD, SDR, adverse events CTCAE v4.0)
Protocol: as §1, §2, §3, §4, §5, §6

[3] = maximum Grade 3 CTCAE v4.0, n = 50

Which “Patients with all causalities AE: AE” value [1] does the source give for `O=C(CCCCCCC(=O)Nc1ccccc1)NO` [vorinostat] here?
The value was 49 (98) No. (%).

What about the “Patients with all causalities AE: AE leading to dose reduction or temporary treatment discontinuation” value [1] of the same compound?
Its value is 38 (76) No. (%).

What about the “Patients with all causalities AE: AE leading to treatment discontinuation” value [1] of the same compound?
The value was 9 (18) No. (%).

And the “Patients with all causalities AE: SAEs” value [1]?
Its value is 19 (38) No. (%).

And the “Patients with all causalities AE: Severe AEs (CTCAE grade 3/4)” value [1]?
Its value is 48 (96) No. (%).

And the “Patients with treatment related AE: Alanine aminotransferase increased” value [1]?
The value was 2 (4.0) Patients (%).

What about the “Patients with treatment related AE: Alopecia” value [1] of the same compound?
Its value is 9 (18.0) Patients (%).

What about the “Patients with treatment related AE: Anemia” value [1] of the same compound?
Its value is 8 (16.0) Patients (%).

What about the “Patients with treatment related AE: Blood creatinine increased” value [1] of the same compound?
The value was 5 (10.0) Patients (%).

What about the “Patients with treatment related AE: Blood lactate dehydrogenase increased” value [1] of the same compound?
The value was 4 (8.0) Patients (%).

What about the “Patients with treatment related AE: Constipation” value [1] of the same compound?
Its value is 4 (8.0) Patients (%).

And the “Patients with treatment related AE: Cough” value [1]?
Its value is 3 (6.0) Patients (%).

And the “Patients with treatment related AE: Decreased appetite” value [1]?
Its value is 5 (10.0) Patients (%).

And the “Patients with treatment related AE: Diarrhea” value [1]?
Its value is 11 (22.0) Patients (%).

And the “Patients with treatment related AE: Dry skin” value [1]?
Its value is 4 (8.0) Patients (%).

And the “Patients with treatment related AE: Fatigue” value [1]?
The value was 9 (18.0) Patients (%).

And the “Patients with treatment related AE: Headache” value [1]?
The value was 5 (10.0) Patients (%).

What about the “Patients with treatment related AE: Nausea” value [1] of the same compound?
The value was 11 (22.0) Patients (%).

And the “Patients with treatment related AE: Platelet count decreased” value (from here on “Patients … Platelet count decreased”) [1]?
Its value is 6 (12.0) Patients (%).

What about the “Patients with treatment related AE: Pyrexia” value [1] of the same compound?
Its value is 3 (6.0) Patients (%).

What about the “Patients with treatment related AE: Vomiting” value [1] of the same compound?
The value was 8 (16.0) Patients (%).

And the “Patients with treatment related AE: Weight decreased” value [1]?
The value was 5 (10.0) Patients (%).

What about the “Patients with treatment related AE: White blood cell decreased” value [1] of the same compound?
Its value is 1 (2.0) Patients (%).

And the “Total of patients with treatment related AE: Alanine aminotransferase increased” value [1]?
Its value is 4 (8.0, 2.2 - 19.2) Patients (%, 95% CIs).

What about the “Total of patients with treatment related AE: Alopecia” value [1] of the same compound?
Its value is 9 (18.0, 8.6 - 31.4) Patients (%, 95% CIs).

And the “Total of patients with treatment related AE: Blood creatinine increased” value [1]?
The value was 5 (10.0, 3.3 - 21.8) Patients (%, 95% CIs).

And the “Total of patients with treatment related AE: Blood lactate dehydrogenase increased” value [1]?
The value was 4 (8.0, 2.2 - 19.2) Patients (%, 95% CIs).

What about the “Total of patients with treatment related AE: Constipation” value [1] of the same compound?
Its value is 4 (8.0, 2.2 - 19.2) Patients (%, 95% CIs).

And the “Total of patients with treatment related AE: Decreased appetite” value [1]?
Its value is 7 (14.0, 5.8 - 26.7) Patients (%, 95% CIs).

And the “Total of patients with treatment related AE: Headache” value [1]?
The value was 6 (12.0, 4.5 - 24.3) Patients (%, 95% CIs).

What about the “Total of patients with treatment related AE: Weight decreased” value [1] of the same compound?
The value was 8 (16.0, 7.2 - 29.1) Patients (%, 95% CIs).

What about the “Total of patients with treatment related AE: White blood cell decreased” value [1] of the same compound?
The value was 9 (18.0, 8.6 - 31.4 ) Patients (%, 95% CIs).

What about the “Total sum of DLTs: Abdominal pain” value [1] of the same compound?
Its value is 1.

And the “Total sum of DLTs: Abdominal pain upper” value [1]?
The value was 2.

What about the “Total sum of DLTs: Aggression” value [1] of the same compound?
Its value is 1.

And the “Total sum of DLTs: Alanine aminotransferase increased” value [1]?
The value was 3.

And the “Total sum of DLTs: Anemia” value [1]?
Its value is 2.

What about the “Total sum of DLTs: Apathy” value [1] of the same compound?
The value was 1.

What about the “Total sum of DLTs: Decreased appetite” value [1] of the same compound?
The value was 3.

And the “Total sum of DLTs: Fatigue” value [1]?
Its value is 7.

What about the “Total sum of DLTs: Febrile infection” value [1] of the same compound?
The value was 2.

And the “Total sum of DLTs: Hypermagnesemia” value [1]?
Its value is 3.

What about the “Total sum of DLTs: Hypokalemia” value [1] of the same compound?
Its value is 1.

And the “Total sum of DLTs: Loss of personal independence in daily activities” value [1]?
The value was 1.

And the “Total sum of DLTs: Vomiting” value [1]?
Its value is 2.

What about the “Total sum of DLTs: Weight decreased” value [1] of the same compound?
The value was 2.

And the “Total sum of DLTs: White blood cell decreased” value [1]?
The value was 11.

And the “median individual MTD” value ([2]; Safety population (n = 50))?
The value was 280 mg/m^2/day.

What about the “patients who reached the maximum individual MTD of 580 mg/m^2/day” value ([2]; Safety population (n = 50)) of the same compound?
The value was 4/50.

And the treatment-related deaths ([2]; Safety population (n = 50))?
The treatment-related deaths was “No treatment-related deaths”.

What about the “safe dose recommendation (SDR)” value ([2]; highest dose with a DLT in no more than 1/50 patients, starting dose for individual dose escalation) of the same compound?
Its value is 130 mg/m^2/day.

What about the “Patients with treatment related AE: Anemia” value [2, 3] of the same compound?
Its value is 2 (4.0) Patients (%).

And the “Patients with treatment related AE: Decreased appetite” value [2, 3]?
The value was 2 (4.0) Patients (%).

And the “Patients with treatment related AE: Diarrhea” value [2, 3]?
Its value is 1 (2.0) Patients (%).

And the “Patients with treatment related AE: Fatigue” value [2, 3]?
The value was 7 (14.0) Patients (%).

And the “Patients with treatment related AE: Headache” value [2, 3]?
Its value is 1 (2.0) Patients (%).

And the “Patients with treatment related AE: Hypermagnesemia” value [2, 3]?
Its value is 3 (6.0) Patients (%).

What about the “Patients with treatment related AE: Nausea” value [2, 3] of the same compound?
Its value is 4 (8.0) Patients (%).

What about the “Patients … Platelet count decreased” value [2, 3] of the same compound?
The value was 15 Patients (%) and 15 (30.0) Patients (%).

And the “Patients with treatment related AE: Vomiting” value [2, 3]?
The value was 2 (4.0) Patients (%).

And the “Patients with treatment related AE: Weight decreased” value [2, 3]?
Its value is 3 (6.0) Patients (%).

What about the “Patients with treatment related AE: White blood cell decreased” value [2, 3] of the same compound?
The value was 8 (16.0) Patients (%).

And the “Patients … Platelet count decreased” value ([2]; maximum Grade 4 CTCAE v4.0, n = 50)?
Its value is 16 Patients (%) and 16 (32.0) Patients (%).

What about the “maximum individual MTD” value ([2]; maximum dose of the escalation scheme) of the same compound?
Its value is 580 mg/m^2/day.

And the MTD ([2]; single patient: High grade glioma, highest methylation score for glioblastoma IDH wt)?
Its MTD is 530 mg/m^2/d.

And the MTD ([2]; single patient: High grade glioma, methylation profile pilocytic astrocytoma, BRAF (p.V600E))?
Its MTD is 280 mg/m^2/d.

What about the MTD ([2]; single patient: High grade glioma, no molecular data, last dose level 280 mg/m^2/d) of the same compound?
The MTD was 530 mg/m^2/d.

And the MTD ([2]; single patient: Medulloblastoma)?
Its MTD is 580 mg/m^2/d.

What about the MTD ([2]; single patient: SETTLE tumor) of the same compound?
Its MTD is 580 mg/m^2/d.
